In patent US20180243317A1, “COMPOSITIONS COMPRISING A PI3K INHIBITOR AND AN HDAC INHIBITOR” (KARUS THERAPEUTICS LTD, priority 2015, published 2018):

Assays:
Recombinant human HDAC6 = target: T1, Recombinant human HDAC6 (Homo sapiens, UniProt Q9UBN7); test: HDAC biochemical assay with acetylated AMC-labeled peptide substrate; details: read-out: IC50 HDAC 6
T1 construct: GST (N); made in house; host or cells: Sf9 insect cells (baculovirus)
T1 sequence (Q9UBN7 1-1215): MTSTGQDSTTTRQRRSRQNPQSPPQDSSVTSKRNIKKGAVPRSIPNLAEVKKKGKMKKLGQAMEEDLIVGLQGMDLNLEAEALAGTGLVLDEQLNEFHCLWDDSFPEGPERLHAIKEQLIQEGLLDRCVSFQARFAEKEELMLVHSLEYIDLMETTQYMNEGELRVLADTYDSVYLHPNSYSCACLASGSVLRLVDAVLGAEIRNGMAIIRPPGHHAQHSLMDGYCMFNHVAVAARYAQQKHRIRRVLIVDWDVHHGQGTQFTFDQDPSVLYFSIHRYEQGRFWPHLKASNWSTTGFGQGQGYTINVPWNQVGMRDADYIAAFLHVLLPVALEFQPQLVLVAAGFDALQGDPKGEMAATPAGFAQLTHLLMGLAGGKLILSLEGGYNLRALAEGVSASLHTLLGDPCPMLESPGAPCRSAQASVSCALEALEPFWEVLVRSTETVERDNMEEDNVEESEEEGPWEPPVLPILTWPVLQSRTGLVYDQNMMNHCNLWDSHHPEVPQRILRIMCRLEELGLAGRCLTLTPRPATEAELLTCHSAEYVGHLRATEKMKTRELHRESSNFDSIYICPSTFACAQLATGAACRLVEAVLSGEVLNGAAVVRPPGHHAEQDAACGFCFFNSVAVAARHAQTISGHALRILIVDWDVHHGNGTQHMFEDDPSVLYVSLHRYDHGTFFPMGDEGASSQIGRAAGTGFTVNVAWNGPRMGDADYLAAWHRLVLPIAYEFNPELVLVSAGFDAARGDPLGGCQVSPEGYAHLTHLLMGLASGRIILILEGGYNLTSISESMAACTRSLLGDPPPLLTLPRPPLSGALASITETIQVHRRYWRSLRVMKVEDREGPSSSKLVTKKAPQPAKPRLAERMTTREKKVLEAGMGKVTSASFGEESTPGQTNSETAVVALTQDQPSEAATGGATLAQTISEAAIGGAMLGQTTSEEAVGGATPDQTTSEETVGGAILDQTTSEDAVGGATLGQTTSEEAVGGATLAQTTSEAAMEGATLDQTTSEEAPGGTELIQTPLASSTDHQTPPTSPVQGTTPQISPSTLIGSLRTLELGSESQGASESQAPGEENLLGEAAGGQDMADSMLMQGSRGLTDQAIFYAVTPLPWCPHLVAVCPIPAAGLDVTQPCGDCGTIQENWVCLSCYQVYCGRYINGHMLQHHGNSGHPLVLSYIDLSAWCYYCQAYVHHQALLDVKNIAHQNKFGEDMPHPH
Experimental: (§1) Activity against all zinc-dependent HDACs 1 to 11 was assessed by using an acetylated AMC-labeled peptide substrate. The substrate RHKKAc was used for all class I and IIb HDACs; for HDAC8, the substrate used was RHKAcKAc. […] All assays were based on the AMC-labeled substrate and developer combination.
(§2) The protocol involved a two-step reaction: first, the substrate with the acetylated lysine side chain is incubated with a sample containing HDAC activity, to produce the deacetylated products, which are then digested in the second step by the addition of developer to produce the fluorescent signal proportional to the amount of deacetylated substrates.
Human HDAC5 (GenBank Accession No. NM_005474), full length with N-terminal GST tag, MW=150 kDa, expressed in baculovirus expression system. Recombinant human HDAC6 (GenBank Accession No. BC069243), full length, MW=180 kDa, was expressed by baculovirus in Sf9 insect cells using an N-terminal GST tag.
(§3) Before use, 1 mg/mL BSA and DMSO are added.
(§4) Incubate for 2 hours at 30° C.
(§5) Fluorescence background signal is then subtracted from compound data signal.
(§6) Stage 1: Deacetylation of substrate by incubation of HDAC enzymes with compounds
(§7) Stage 2: Development by addition of Developer to digest the deacetylated substrate, and generate the fluorescent color; Detection: 360/460 Ex/Em

Human HDAC1 = target: T2, Human HDAC1 (Homo sapiens, UniProt Q13547); test: as above; details: read-out: IC50 HDAC 1
T2 construct: full length with C-terminal His-tag and C-terminal FLAG-tag; His-tag (C); FLAG-tag (C); made in house; host or cells: baculovirus expression system
T2 sequence (Q13547 whole entry): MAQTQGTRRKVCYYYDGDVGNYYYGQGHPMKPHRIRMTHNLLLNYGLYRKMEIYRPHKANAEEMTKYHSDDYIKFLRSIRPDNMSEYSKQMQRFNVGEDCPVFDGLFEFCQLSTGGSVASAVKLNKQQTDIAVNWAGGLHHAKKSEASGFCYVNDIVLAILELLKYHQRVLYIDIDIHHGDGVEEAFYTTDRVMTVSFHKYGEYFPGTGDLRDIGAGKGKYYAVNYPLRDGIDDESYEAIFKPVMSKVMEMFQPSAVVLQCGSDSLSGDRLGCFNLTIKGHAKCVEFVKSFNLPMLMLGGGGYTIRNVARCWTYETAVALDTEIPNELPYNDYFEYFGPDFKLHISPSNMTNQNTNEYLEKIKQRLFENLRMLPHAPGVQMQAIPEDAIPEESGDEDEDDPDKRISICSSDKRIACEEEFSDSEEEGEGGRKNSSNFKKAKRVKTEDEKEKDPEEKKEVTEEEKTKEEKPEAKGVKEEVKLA
Experimental: as §1, §2
Human HDAC1 (GenBank Accession No. NM_004964), full length with C-terminal His-tag and C-terminal FLAG-tag, MW=56 kDa, expressed in baculovirus expression system.
as §3, §4, §5, §6, §7

Row | IC50 (Recombinant human HDAC6) [µM] | IC50 (Human HDAC1) [µM] | SMILES
1 | ≤ 0.5 | > 10 | O=C(NO)c1ccc(CN(c2cnccn2)c2cccnn2)c(F)c1 [Example NN, 3-Fluoro-N-hydroxy-4-{[(pyrazin-2-yl)(pyridazin-3-yl)amino]methyl}benzamide]
2 | ≤ 0.5 | 1 to 10 | COc1cccnc1N(Cc1ccc(C(=O)NO)cc1)c1cnccn1 [Example JJ, N-Hydroxy-4-{[(3-methoxypyridin-2-yl)(pyrazin-2-yl)amino]methyl}benzamide]
3 | ≤ 0.5 | 1 to 10 | O=C(NO)c1ccc(CN(c2cnccn2)c2cnccn2)nc1 [Example II, 6-{[Bis(pyrazin-2-yl)amino]methyl}-N-hydroxypyridine-3-carboxamide]
4 | ≤ 0.5 | 1 to 10 | O=C(NO)c1ccc(CN(c2ccncn2)c2cnccn2)c(F)c1 [Example EE]
5 | ≤ 0.5 | > 10 | COc1ccc(N(Cc2ccc(C(=O)NO)cc2)c2ccc(C)cn2)nc1 [Example Y, N-Hydroxy-4-(((5-methoxypyridin-2-yl)(5-methylpyridin-2-yl)amino)methyl)benzamide]
6 | ≤ 0.5 | > 10 | O=C(NO)c1ccc(CN(c2ccccn2)c2ncns2)cc1 [Example K, N-Hydroxy-4-((pyridin-2-yl(1,2,4-thiadiazol-5-yl)amino)methyl)benzamide]
7 | ≤ 0.5 | 1 to 10 | Cn1ccc(N(Cc2ccc(C(=O)NO)cc2)c2cc(-c3ccc(F)cc3)ccn2)n1 [Example Q, 4-(((4-(4-Fluorophenyl)pyridin-2-yl)(1-methyl-1H-pyrazol-3-yl)amino)methyl)-N-hydroxybenzamide]
8 | ≤ 0.5 | 1 to 10 | COc1ccnc(N(Cc2ccc(C(=O)NO)cc2)c2cnccn2)c1 [Example PP, N-Hydroxy-4-{[(4-methoxypyridin-2-yl)(pyrazin-2-yl)amino]methyl}benzamide]
9 | ≤ 0.5 | > 10 | O=C(NO)c1ccc(CN(c2ccccn2)c2nc(C(F)(F)F)ns2)cc1 [Example W, N-Hydroxy-4-((pyridin-2-yl(3-(trifluoromethyl)-1,2,4-thiadiazol-5-yl)amino)methyl)benzamide]
10 | ≤ 0.5 | > 10 | Cc1nnc(N(Cc2ccc(C(=O)NO)cc2)c2ccccn2)s1 [Example H, N-Hydroxy-4-(((5-methyl-1,3,4-thiadiazol-2-yl)(pyridin-2-yl)amino)methyl)benzamide]
11 | ≤ 0.5 | 1 to 10 | O=C(NO)c1ccc(CN(c2ccncn2)c2cnccn2)cc1 [Example DD, N-Hydroxy-4-{[(pyrazin-2-yl)(pyrimidin-4-yl)amino]methyl}benzamide]
12 | ≤ 0.5 | > 10 | Cn1c(N(Cc2ccc(C(=O)NO)cc2)c2ccc(F)cn2)nc2ccccc21 [Example N, 4-(((5-Fluoropyridin-2-yl)(1-methyl-1H-benzo[d]imidazol-2-yl)amino)methyl)-N-hydroxybenzamide]
13 | 1 to 10 | > 10 | O=C(NO)c1ccc(CN(c2ccc(F)cn2)c2nc(C(F)(F)F)ns2)cc1 [Example T, 4-(((5-Fluoropyridin-2-yl)(3-(trifluoromethyl)-1,2,4-thiadiazol-5-yl)amino)methyl)-N-hydroxybenzamide]
14 | ≤ 0.5 | > 10 | Cn1ccc(N(Cc2ccc(C(=O)NO)cc2)c2ccc(F)cn2)n1 [Example O, 4-(((5-Fluoropyridin-2-yl)(1-methyl-1H-pyrazol-3-yl)amino)methyl)-N-hydroxybenzamide]
15 | ≤ 0.5 | 1 to 10 | Cc1nsc(N(Cc2ccc(C(=O)NO)cc2)c2cnccn2)n1 [Example OO, N-Hydroxy-4-{[(3-methyl-1,2,4-thiadiazol-5-yl)(pyrazin-2-yl)amino]methyl}benzamide]
16 | ≤ 0.5 | 1 to 10 | O=C(NO)c1ccc(CN(c2cnccn2)c2cc(-c3ccc(F)cc3)ccn2)cc1 [Example U, 4-(((4-(4-Fluorophenyl)pyridin-2-yl)(pyrazin-2-yl)amino)methyl)-N-hydroxybenzamide]
17 | ≤ 0.5 | > 10 | O=C(NO)c1ccc(CN(c2ccncn2)c2cnccn2)nc1 [Example FF, N-Hydroxy-6-{[(pyrazin-2-yl)(pyrimidin-4-yl)amino]methyl}pyridine-3-carboxamide]
18 | ≤ 0.5 | 1 to 10 | COc1cccnc1N(Cc1ccc(C(=O)NO)cc1F)c1cnccn1 [Example KK, 3-Fluoro-N-hydroxy-4-{[(3-methoxypyridin-2-yl)(pyrazin-2-yl)amino]methyl}benzamide]
19 | 1 to 10 | > 10 | Cc1nsc(N(Cc2ccc(C(=O)NO)cc2)c2cc(-c3ccc(F)cc3)ccn2)n1 [Example S, 4-(((4-(4-Fluorophenyl)pyridin-2-yl)(3-methyl-1,2,4-thiadiazol-5-yl)amino)methyl)-N-hydroxybenzamide]
20 | ≤ 0.5 | 1 to 10 | COc1ccc(N(Cc2ccc(C(=O)NO)cc2)c2ccc(N3CCOCC3)cn2)nc1 [Example AA, N-Hydroxy-4-(((5-methoxypyridin-2-yl)(5-morpholinopyridin-2-yl)amino)methyl)benzamide]
21 | ≤ 0.5 | > 10 | Cc1nsc(N(Cc2ccc(C(=O)NO)cc2)c2ccc(F)cn2)n1 [Example R, 4-(((5-Fluoropyridin-2-yl)(3-methyl-1,2,4-thiadiazol-5-yl)amino)methyl)-N-hydroxybenzamide]
22 | ≤ 0.5 | > 10 | Cc1noc(N(Cc2ccc(C(=O)NO)cc2)c2ccc(F)cn2)n1 [Example M, 4-(((5-Fluoropyridin-2-yl)(3-methyl-1,2,4-oxadiazol-5-yl)amino)methyl)-N-hydroxybenzamide]
23 | ≤ 0.5 | > 10 | COc1cccnc1N(Cc1ccc(C(=O)NO)cc1)c1ccc(N2CCOCC2)cn1 [Example Z, N-Hydroxy-4-(((3-methoxypyridin-2-yl)(5-morpholinopyridin-2-yl)amino)methyl)benzamide]
24 | ≤ 0.5 | > 10 | O=C(NO)c1ccc(CN(c2cnccn2)c2cccnn2)cc1 [Example MM, N-Hydroxy-4-{[(pyrazin-2-yl)(pyridazin-3-yl)amino]methyl}benzamide]
25 | ≤ 0.5 | 1 to 10 | O=C(NO)c1ccc(CN(c2ccccn2)c2nc3ccccc3o2)cc1 [Example I, 4-((Benzo[d]oxazol-2-yl(pyridin-2-yl)amino)methyl)-N-hydroxybenzamide]
26 | ≤ 0.5 | 1 to 10 | O=C(NO)c1ccc(CN(c2cnccn2)c2cnccn2)c(F)c1 [Example HH, 4-{[Bis(pyrazin-2-yl)amino]methyl}-3-fluoro-N-hydroxybenzamide]
27 | ≤ 0.5 | > 10 | O=C(NO)c1ccc(CN(c2ccc(F)cn2)c2nc3ccccc3o2)cc1 [Example P, 4-((Benzo[d]oxazol-2-yl(5-fluoropyridin-2-yl)amino)methyl)-N-hydroxybenzamide]
28 | ≤ 0.5 | – | O=C(NO)c1ccc(CN(c2ccccn2)c2nc3ccccc3s2)cc1 [Example V, 4-((Benzo[d]thiazol-2-yl(pyridin-2-yl)amino)methyl)-N-hydroxybenzamide]
